Laboratory results taken from PMC8769072, “Proteome‐scale mapping of binding sites in the unstructured regions of the human proteome” (Molecular Systems Biology, 2022).
Like-named read-outs stand apart in the source and are kept apart here. Where a SMILES comes first, the peptide text is derived from it. Where no end group is shown, it is not given here. [ ]: non-standard residue; d: D form. pY = N[C@@H](Cc1ccc(OP(=O)(O)O)cc1)C(=O)O; pS = N[C@@H](COP(=O)(O)O)C(=O)O

Assays:
[1] = target: T1, KPNB1 HEAT (Homo sapiens, UniProt Q14974); assay: FP competition, KPNB1 HEAT; assay type: binding; details: for Ki: FP competition with FITC-NUP153 probe, low-affinity value
T1 construct: Q14974; KPNB1; HEAT; 485; pETM41; Genescript; 6-His-MBP (from vector pETM41) (cleaved yes); made in house; host or cells: bacteria (E. coli BL21(DE3) gold is named only for the phage-selection preparations)

[2] = target: T2, KPNA4 ARM (Homo sapiens, UniProt O00629); assay: FP competition, KPNA4 ARM minor pocket (FITC-NCOR2 probe); assay type: binding; details: for effect of phosphorylation on the affinity for KPNA4, in words: FP competition with FITC-NCOR2 probe, phosphorylated versus unphosphorylated NCOR1 peptide
T2 construct: O00629; KPNA4; Arm; 68; 487; pETM33/pETM41; Genescript; made in house; host or cells: bacteria (E. coli BL21(DE3) gold is named only for the phage-selection preparations)
Description: (§1) Like other importins, KPNA4 has two distinct NLS‐binding pockets on the surface of an armadillo (ARM) repeat fold (major pocket, ARM 2–4; minor pocket, ARM 6–8; Fig 5B) (Smith et al, [2018]). Bipartite NLSs are usually 17–19 amino acids long and engage both pockets. Monopartite NLSs are short basic stretches, divided into five classes (Kosugi et al, [2009]): class I KR[KR]R or K[KR]RK, class II [PR]xxKR[^DE][KR] (where ^ indicates “not”), class III KRx[WFY]xxAF, class IV [RP]xxKR[KR][^DE], and class V LGKR[KR][WFY]. The class I and class II motifs preferentially interact with the major pocket (Kosugi et al, [2009]). In contrast, class III and class IV NLSs preferentially bind to the minor pocket. Using KPNA4 as a bait against the HD2 P8 library we identified 33 peptides found in 32 proteins. Of the 26 proteins for which information was available, 22 proteins were annotated as having nuclear or nucleolar localization in the UniProt database. To gain additional information we combined the data generated for KPNA4 by screening against the complete P8 HD2 library, with the results generated using two relevant sublibraries (the cytoplasmic and nuclear, and nuclear sublibraries) resulting in a set of 92 peptides containing NLS‐like sequences found in 76 proteins. Using these peptides we could generate consensus motifs that matched four of the previously reported NLS classes (Fig 5A; class I‐IV). […] Three peptides bound only to the major pocket. Eight peptides with class III motif and one KRxH‐containing peptide only bound to the minor pocket. Five peptides outcompeted both probe peptides, which may be explained by the amino acid sequence matching both class II and class III motifs (e.g., 1135‐ PSPKRKL ‐1139 in ZNF532; Fig 5), and possibly by cross specificity of the two binding pockets.

[3] = target: T2, KPNA4 ARM; assay: FP competition, KPNA4 ARM major pocket (FITC-Myc probe); assay type: binding; details: for IC50: FP competition with FITC-Myc320-328 probe for the major pocket, 50 mM KPO4 pH 7.5, n = 3 technical replicates; for Kd: Fig 5D, FP competition with FITC-Myc320-328, major groove, n = 3
Description: as §1

[4] = target: T3, TLN1 PTB (Homo sapiens, UniProt Q9Y490); assay: FP competition, TLN1 PTB; assay type: binding; details: for Ki: FP competition with FITC-PIP5K1C probe
T3 construct: Q9Y490; TLN1; PTB; 309; pHH0103; Sidhu Lab (PMID: 33438817); made in house; host or cells: bacteria (E. coli BL21(DE3) gold is named only for the phage-selection preparations)

[5] = target: T4, KEAP1 Kelch (Homo sapiens, UniProt Q14145); assay: FP competition, KEAP1 Kelch; assay type: binding; details: for binding to KEAP1 Kelch, result in words: FP competition with FITC-NFE2L1 probe
T4 construct: Q14145; KEAP1; Kelch; 321; 609; pETM33; Genescript; made in house; host or cells: bacteria (E. coli BL21(DE3) gold is named only for the phage-selection preparations)

[6] = system: immobilized GST-tagged bait protein domains; assay: ProP-PD phage selections (HD2 P8, sublibraries, HD2 P3, HD1 P8) with NGS and confidence level; assay type: binding, human; details: bait CRK_SH3_1_P46108_124_198; library HD2; benchmarking set of validated motif instances; TRUE = motif instance recovered in the ProP-PD selection
[7] = target: T5, MDM2 SWIB (Homo sapiens, UniProt Q00987); assay: FP competition, MDM2 SWIB; assay type: binding
T5 construct: Q00987; MDM2; SWIB; 17; 125; pETM33; Genescript; His-GST (cleaved yes); made in house; host or cells: bacteria (E. coli BL21(DE3) gold is named only for the phage-selection preparations)

Compound: CC(=O)NCC(=O)N[C@@H](Cc1ccc(O)cc1)C(=O)N[C@H](C(=O)N[C@@H](Cc1ccccc1)C(=O)N[C@@H](CCC(N)=O)C(=O)N[C@H](C(=O)N[C@@H](CCC(N)=O)C(=O)N[C@@H](CC(=O)O)C(=O)NCC(=O)N[C@@H](C)C(=O)N1CCC[C@H]1C(=O)NCC(=O)N[C@H](C(=O)N[C@@H](Cc1ccccc1)C(=O)N[C@@H](CC(N)=O)C(=O)N[C@@H](Cc1ccccc1)C(=O)O)[C@@H](C)O)C(C)C)[C@@H](C)O [KPNA2_514–529]
- Ki [1]: 1000 µM

Compound: CC[C@H](C)[C@H](NC(=O)[C@H](CC(N)=O)NC(=O)CNC(=O)[C@H](CCC(=O)O)NC(=O)[C@@H](NC(=O)[C@H](CO)NC(=O)[C@H](CCC(=O)O)NC(=O)[C@H](Cc1ccc(O)cc1)NC(=O)[C@H](CO)NC(=O)[C@H](CCCNC(=N)N)NC(=O)[C@H](CCCCN)NC(=O)[C@H](CC(C)C)NC(=O)[C@H](COP(=O)(O)O)NC(=O)[C@@H](NC(=O)[C@H](CCC(=O)O)NC(C)=O)[C@@H](C)CC)C(C)C)C(=O)N[C@@H](CCCCN)C(N)=O [NCOR1 pS1242] (Ac-EI[pS]LKRSYESVEGNIK-NH2)
- IC50 [2]: 31 µM
- effect of phosphorylation on the affinity for KPNA4, in words [2]: minor effects

Compound: CC[C@H](C)[C@H](NC(=O)[C@H](CC(N)=O)NC(=O)CNC(=O)[C@H](CCC(=O)O)NC(=O)[C@@H](NC(=O)[C@H](CO)NC(=O)[C@H](CCC(=O)O)NC(=O)[C@H](Cc1ccc(O)cc1)NC(=O)[C@H](COP(=O)(O)O)NC(=O)[C@H](CCCNC(=N)N)NC(=O)[C@H](CCCCN)NC(=O)[C@H](CC(C)C)NC(=O)[C@H](CO)NC(=O)[C@@H](NC(=O)[C@H](CCC(=O)O)NC(C)=O)[C@@H](C)CC)C(C)C)C(=O)N[C@@H](CCCCN)C(N)=O [NCOR1 pS1246] (Ac-EISLKR[pS]YESVEGNIK-NH2)
- IC50 [2]: 240 µM
- effect of phosphorylation on the affinity for KPNA4, in words [2]: marked loss of affinity

Compound: CC[C@H](C)[C@H](NC(=O)[C@H](CC(N)=O)NC(=O)CNC(=O)[C@H](CCC(=O)O)NC(=O)[C@@H](NC(=O)[C@H](CO)NC(=O)[C@H](CCC(=O)O)NC(=O)[C@H](Cc1ccc(OP(=O)(O)O)cc1)NC(=O)[C@H](CO)NC(=O)[C@H](CCCNC(=N)N)NC(=O)[C@H](CCCCN)NC(=O)[C@H](CC(C)C)NC(=O)[C@H](CO)NC(=O)[C@@H](NC(=O)[C@H](CCC(=O)O)NC(C)=O)[C@@H](C)CC)C(C)C)C(=O)N[C@@H](CCCCN)C(N)=O [NCOR1 pY1247] (Ac-EISLKRS[pY]ESVEGNIK-NH2)
- IC50 [2]: 21 µM
- effect of phosphorylation on the affinity for KPNA4, in words [2]: minor effects

Compound: CC(C)C[C@H](NC(=O)[C@H](CCCNC(=N)N)NC(=O)[C@@H]1CCCN1C(=O)[C@H](CCCNC(=N)N)NC(=O)[C@H](CCCCN)NC(=O)[C@H](CC(N)=O)NC(=O)[C@@H]1CCCN1C(=O)[C@H](Cc1ccccc1)NC(=O)[C@@H](NC(=O)[C@H](CC(=O)O)NC(=O)[C@H](CCC(=O)O)NC(=O)[C@@H](N)CO)[C@@H](C)O)C(=O)N[C@@H](CCC(=O)O)C(=O)N[C@@H](CC(=O)O)C(=O)N[C@@H](CCCCN)C(=O)N[C@H](C(=O)N[C@H](C(N)=O)C(C)C)[C@@H](C)O [SPRTN]
- IC50 [3]: 0.26 µM

Compound: CC(C)C[C@H](NC(=O)[C@H](CCCCN)NC(=O)[C@H](CCCNC(=N)N)NC(=O)[C@H](CCCCN)NC(=O)[C@@H]1CCCN1C(=O)[C@H](CO)NC(=O)[C@@H]1CCCN1)C(=O)N[C@@H](CCC(=O)O)C(=O)N[C@@H](CCC(=O)O)C(=O)N1CCC[C@H]1C(=O)N[C@H](C(=O)N[C@@H](CC(C)C)C(=O)N[C@@H](CCC(=O)O)C(=O)N[C@@H](Cc1ccccc1)C(=O)N[C@@H](CCCNC(=N)N)C(=O)N1CCC[C@H]1C(N)=O)C(C)C [ZNF532]
- IC50 [2]: 1.3 µM

Compound: AGVKRSAAEMYGSVTE-NH2 [HNRNPC]
- IC50 [2]: 0.5 µM

Compound: AKWDTANNPLYKEATS-NH2 [ITB3]
- IC50 [4]: 1430 µM
- Ki [4]: 500 µM

Compound: Ac-AYAPPVFVFQKDKGQK-NH2 [RANBP3]
- IC50 [1]: 2200 µM
- Ki [1]: ~1000 µM

Compound: Ac-EISLKRSYESVEGNIK-NH2 [NCOR1 Wt]
- IC50 [2]: 11 µM

Compound: Ac-GIIDPSTGECFPVTDY-NH2
- IC50 [5]: 2.3 µM
- binding to KEAP1 Kelch, result in words [5]: no effect on binding

Compound: Ac-GIIDPSTGERFPVTDY-NH2 [PLEC 4457-4471]
- IC50 [5]: 1.5 µM

Compound: Ac-LIYVDKENGEPGTRVV-NH2 [PTTG1]
- IC50 [5]: 3 µM

Compound: Ac-NPPVATFVFGQSSNPY-NH2 [NUP153]
- IC50 [1]: 49 µM

Compound: Ac-PPLPPPPLPPAPSLPY-NH2 [ATF5]
- IC50 [5]: 4430 µM

Compound: Ac-VLPDCLTDGSDVVSDY-NH2 [CFAP36]
- Ki ([5]; FP competition with FITC-NFE2L1 228-243 probe, protein at 4x KD and 10 nM probe in master mix, 50 mM KPO4 pH 7.5, Ki calculated from IC50, triplicates): > 2040 µM
- IC50 ([5]; FP competition with FITC-NFE2L1 228-243 probe, protein at 4x KD and 10 nM probe in master mix, 50 mM KPO4 pH 7.5, triplicates): > 2040 µM
- binding to KEAP1 Kelch, result in words [5]: did not bind at all

Compound: Ac-YDEEKGEFLPIQPAQH-NH2 [NFE2L2 T80K]
- IC50 [5]: 2540 µM

Compound: Ac-YDEETGEFLPIQPAQH-NH2 [NFE2L2 Wt]
- IC50 [5]: 0.31 µM

Compound: Ac-YDEKTGEFLPIQPAQH-NH2 [NFE2L2 E79K]
- IC50 [5]: 1650 µM

Compound: Ac-YMQHLQEQQQQQMHLQ-NH2 [TREF1]
- IC50 [5]: 490 µM

Compound: DHQFPAKRPRLSEPQG-NH2 [HJURP]
- IC50 [3]: 0.076 µM
- IC50 [2]: 170 µM

Compound: DLIFTDSKLYIPLE-NH2 [TPTE]
- IC50 [4]: 15 µM

Compound: DLKRRLDSITSSQSSA-NH2 [KDR]
- IC50 [3]: 22 µM
- Kd [3]: 14 µM
- IC50 [2]: 24 µM

Compound: EDSIEPPHKRLCLSSE-NH2 [DMTF1]
- IC50 [3]: 0.13 µM
- Kd [3]: 0.075 µM

Compound: ELKRKLEQEQKLVEVL-NH2 [MKL2]
- IC50 [2]: 36 µM

Compound: ERENPSKRSRIERDID-NH2 [CTDSPL2]
- IC50 [3]: 1.9 µM

Compound: FPTDERSWVYSPLHYS-NH2 [PIP5K1C]
- IC50 [4]: 0.42 µM
- Ki ([4]; Fig 3C, triplicates): 0.066 µM

Compound: GFDAVTGEFTGMPEQW-NH2 [PAK1]
- IC50 [5]: 44 µM
- motif_found [6]: FALSE

Compound: GFEAQWAALENKSKQR [NUMB]
- IC50 [7]: 130 µM

Compound: GKKRTFDETVSTYVPL-NH2 [TPX2]
- IC50 [2]: 0.41 µM
- Kd ([2]; read-out: KD (Fig 5D)): 0.047 µM

Compound: GVKRTYSEVYPGQQYL-NH2 [ZMIZ2]
- IC50 [2]: 0.43 µM

Compound: IDPSTGERFPVTDAVN-NH2 [PLEC 4459-4474]
- IC50 [5]: 6.1 µM

Compound: IPEKKQRLEEATTICL-NH2 [AFF2]
- IC50 [3]: 2.3 µM
- IC50 [2]: 3800 µM

Compound: PFKRPHSTISDSSTSS-NH2 [PLEKHG4B]
- IC50 [2]: 3.6 µM

Compound: PKRTYDMMEGRVGRAI-NH2 [NCOR2]
- IC50 [2]: 0.12 µM

Compound: SLAPVKRTYEQMEFPL-NH2 [ADNP]
- IC50 [2]: 1.3 µM

Compound: STMKRKHDEIQRSLPV-NH2 [ZBED9]
- IC50 [2]: 2.4 µM

Compound: VEPETKRLKLAASEDH-NH2 [ZRANB3]
- IC50 [3]: 0.24 µM

Compound: VGPLTPLWTYPATAAG-NH2 [NYAP1]
- IC50 [4]: 62 µM

Compound: YDPVTGEWKSLAKLPE-NH2 [KLHL24]
- IC50 [5]: 80 µM
